From patent publication US10703756B2, “Pyrrolo[2,3-D]pyrimidinyl, pyrrolo[2,3-B]pyrazinyl, pyrrolo[2,3-B]pyridinyl acrylamides and epoxides thereof” (Pfizer Inc., priority 2015, dated 2020) come the findings set out here.

SMILES strings stand for the structures.

Assay [1] concerns the target T1, JAK3 enzyme (Homo sapiens, UniProt P52333).
T1 sequence (P52333 1-1124): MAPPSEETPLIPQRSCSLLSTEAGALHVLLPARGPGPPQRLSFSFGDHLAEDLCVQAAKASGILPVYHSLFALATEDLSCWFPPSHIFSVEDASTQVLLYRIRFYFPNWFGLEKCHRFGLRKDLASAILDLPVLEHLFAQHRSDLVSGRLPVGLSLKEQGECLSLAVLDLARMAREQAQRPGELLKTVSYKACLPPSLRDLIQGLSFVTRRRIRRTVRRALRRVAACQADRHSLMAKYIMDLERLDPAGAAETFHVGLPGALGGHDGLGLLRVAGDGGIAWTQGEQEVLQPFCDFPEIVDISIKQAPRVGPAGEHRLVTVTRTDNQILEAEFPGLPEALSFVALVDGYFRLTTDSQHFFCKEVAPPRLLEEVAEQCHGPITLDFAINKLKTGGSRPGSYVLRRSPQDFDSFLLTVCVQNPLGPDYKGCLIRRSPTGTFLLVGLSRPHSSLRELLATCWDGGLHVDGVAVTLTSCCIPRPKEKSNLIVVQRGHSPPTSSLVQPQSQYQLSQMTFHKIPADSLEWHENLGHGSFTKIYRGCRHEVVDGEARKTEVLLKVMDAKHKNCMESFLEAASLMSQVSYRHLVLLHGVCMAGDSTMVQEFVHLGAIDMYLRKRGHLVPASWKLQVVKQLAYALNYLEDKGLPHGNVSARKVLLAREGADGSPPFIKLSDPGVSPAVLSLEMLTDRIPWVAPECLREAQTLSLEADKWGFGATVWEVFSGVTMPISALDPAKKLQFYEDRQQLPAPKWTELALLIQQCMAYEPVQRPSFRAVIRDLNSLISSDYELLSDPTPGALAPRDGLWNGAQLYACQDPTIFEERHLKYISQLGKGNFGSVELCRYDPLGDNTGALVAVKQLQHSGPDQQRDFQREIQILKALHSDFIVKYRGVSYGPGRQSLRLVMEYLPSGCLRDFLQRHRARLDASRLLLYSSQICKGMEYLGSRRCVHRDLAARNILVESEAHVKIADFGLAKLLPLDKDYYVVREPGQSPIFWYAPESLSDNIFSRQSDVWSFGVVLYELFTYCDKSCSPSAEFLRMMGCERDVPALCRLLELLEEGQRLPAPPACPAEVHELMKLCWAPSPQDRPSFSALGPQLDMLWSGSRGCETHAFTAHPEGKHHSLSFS
Briefly: JAK Caliper Enzyme Assay at 1 mM ATP. In kind it is biochemical. In outline: (§1)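 Compound tested as 11-point half-log DMSO dilution series (top 600 μM in DMSO, a dilution-plate level). Enzyme level and time set for 20%-30% peptide phosphorylation; phosphorylated and unphosphorylated peptide separated and quantified by Caliper LC3000 mobility shift.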

Assay [2] deals with IL-15 induced P-STAT5 in human PBMC. In words: PBMC IL-15 Induced P-STAT5. Format: cell-based. To be noted: human PBMC, IL-15 final 41 ng/mL; read-out: PBMC IL15_pSTAT5_IC50. How it is done:
PBMC IL-15 Induced P-STAT5
Test compounds were serially diluted in DMSO, with further dilution of the compounds in RPMI 1640 medium (Invitrogen #72400) supplemented with 10 mM HEPES, pH 7.4, 1 mM sodium pyruvate, and Penicillin/Streptomycin (by adding 5 μL compound/DMSO in 120 μL Dulbecco's Phosphate-Buffered Saline (D-PBS, 1×), [DMSO]=4%, and mixing the solution by repeated pipetting, 6×). IL-15 was diluted to the concentration at 820 ng/mL in RPMI 1640 medium.
Frozen human PBMC (200-250 million cells/vial) was thawed at 37° C. The cells were transferred to 10 mL warm medium in a 50-mL conical tube, and centrifuged at 1,200 RPM at room temperature for 5 min. The supernatant was aspirated. Cells were suspended in 3 mL warm human plasma and incubated at 37° C. in a tissue culture incubator for 1.5 to 2 h. After adding 47 ml D-PBS (37° C.) to PBMC/FBS suspension, centrifuging at 1,200 RPM at room temperature for 5 min, and aspirating the supernatant, the cells were resuspended in 20 mL warm RPMI medium. Ninety μL of cell suspension were pipetted per well in a 96-well, deep-well, V-bottom plate, and the plate was incubated at 37° C. for 30 min. Five μL of compound were transferred to each well (final 0.2% DMSO), vortex gently and incubate at 37° C. for 15 min; 5 μL 4% DMSO/PBS were added to the control wells. After adding 5 μL 820 ng/mL of human IL-15 (final 41 ng/mL) to each well (5 μL PBS to the control wells), vortexing gently and incubating at 37° C. for 15 min, followed by 0.3 mL 1% paraformaldehyde/PBS (37° C.) to each well, and incubating the plate at room temperature for 15 min, the plates were centrifuged at 1,200 RPM (Beckman GS-6R or Sorvall Legend) at room temperature for 5 min, and the supernatant was aspirated using a 8-channel or 12-channel manifold. After adding 0.8 mL staining buffer per well, the plates were centrifuged at 1,200 RPM (Beckman GS-6R or Sorvall Legend) at room temperature for 5 min, and again the supernatant was aspirated using a 8-channel or 12-channel manifold. The plate was vortexed, and 0.35 mL 90% methanol/10% H2O (−20° C.) was added per well, and the plate incubated on ice for 20 min. After again adding 0.8 mL staining buffer per well, the plates were centrifuged at 1,200 RPM (Beckman GS-6R or Sorvall Legend) at room temperature for 5 min, and again the supernatant was aspirated using a 8-channel or 12-channel manifold, and then 0.8 mL Staining buffer was added per well. After once again adding 0.8 mL staining buffer per well, the plates were centrifuged at 1,200 RPM (Beckman GS-6R or Sorvall Legend) at room temperature for 5 min, and again the supernatant was aspirated using a 8-channel or 12-channel manifold. Then the plate was vortexed, and 250 μL/well of Alexa Fluor® 647 conjugated anti-STAT5 antibody ([…]; […]) was added, and the plate was incubated at 4° C. overnight in the dark. Samples of 250 μL/well were transferred to a 96-well U-bottom plate, and the FACS analysis was performed gating on total lymphocytes. Samples were analyzed using a BD Calibur™ or BD FACSCanto™ flow cytometer equipped with the BD High Throughput Sampler.

Assay [3] concerns the target T1, JAK3 enzyme. Briefly: JAK Caliper Enzyme Assay at 4 μM ATP. In kind it is biochemical. In outline: as §1

Regarding `C=CC(=O)N1CC[C@@H](Nc2cnc3[nH]cc(C(=O)NCC)c3n2)[C@H](OC)C1` (racemic) [Example 25, Trans-racemic-2-{[1-acryloyl-3-methoxypiperidin-4-yl]amino}-N-ethyl-5H-pyrrolo[2,3-b]pyrazine-7-carboxamide], the IC50 at JAK3 enzyme [1] turned out to be 0.092 µM; in assay [2] it was 1.6 µM; against JAK3 enzyme [3] it was 0.00133 µM.
Taken in the same sequence, the figures for `C=CC(=O)N1CC[C@@H](Oc2cnc3[nH]cc(C(=O)NCC)c3n2)[C@H](C)C1` (racemic) [Example 46, Trans-racemic-2-{[1-acryloyl-3-methylpiperidin-4-yl]oxy}-N-ethyl-5H-pyrrolo[2,3-b]pyrazine-7-carboxamide] were 0.209 µM, 0.871 µM and 0.00338 µM.
For the molecule `C=CC(=O)N1C[C@@H](Nc2ncnc3[nH]ccc23)C[C@@H](C(=O)N(C)C)C1` (racemic) [Example 94], the IC50 on JAK3 enzyme [1] is 0.148 µM; in assay [2], 1.08 µM; on JAK3 enzyme [3], 0.0008 µM.
In the case of `C=CC(=O)N1C[C@@H](CO)C[C@@H](Nc2ncnc3[nH]ccc23)C1` (racemic) [Example 97, racemic-1-((3R,5S)-3-((7H-pyrrolo[2,3-d]pyrimidin-4-yl)amino)-5-(hydroxymethyl)piperidin-1-yl)prop-2-en-1-one], the IC50 stood at 0.187 µM at JAK3 enzyme [1], 1.06 µM in assay [2] and 0.00171 µM at JAK3 enzyme [3].
On the same counts, the results for `C=CC(=O)N1C[C@H](Nc2ncnc3[nH]ccc23)CC[C@@H]1[C@H](C)O` (racemic) [Example 112] are 0.181 µM, 1.01 µM and 0.00103 µM.
Taken in the same sequence, the figures for `C[C@H]1CC[C@@H](Nc2ncnc3[nH]ccc23)CN1C(=O)C1CO1` (mixture of isomers) [Example 132, Racemic-[(2S,5R)-2-methyl-5-(7H-pyrrolo[2,3-d]pyrimidin-4-ylamino)piperidin-1-yl](oxiran-2-yl)methanone] were 0.255 µM, 0.524 µM and 0.00167 µM.
Taken in the same sequence, the figures for `C=CC(=O)N1CCN(c2cnc3[nH]cc(C(=O)NC(COC)COC)c3n2)CC1(C)C` (racemic) [Example 140, Racemic-2-(4-acryloyl-3,3-dimethylpiperazin-1-yl)-N-(1,3-dimethoxypropan-2-yl)-5H-pyrrolo[2,3-b]pyrazine-7-carboxamide] were 0.384 µM, 1.71 µM and 0.00271 µM.
`C=CC(=O)N1CCN(c2cnc3[nH]cc(C(=O)NC(CC)COC)c3n2)CC1(C)C` (racemic) [Example 141, Racemic-2-(4-acryloyl-3,3-dimethylpiperazin-1-yl)-N-(1-methoxybutan-2-yl)-5H-pyrrolo[2,3-b]pyrazine-7-carboxamide]: the results for the IC50 (on JAK3 enzyme [1]; in assay [2]; against JAK3 enzyme [3]) were 0.103 µM, 0.347 µM and 0.000794 µM, respectively.
Taken in the same sequence, the figures for `C=CC(=O)N1CCC(Oc2cnc3[nH]cc(C(=O)NCC4(O)CCCC4)c3n2)CC1` (racemic) [Example 206, Racemic-2-[(1-acryloylpiperidin-4-yl)oxy]-N-[(1-hydroxycyclopentyl)methyl]-5H-pyrrolo[2,3-b]pyrazine-7-carboxamide] were 0.325 µM, 3.1 µM and 0.00279 µM.
Taken in the same sequence, the figures for `C=CC(=O)N1CCC(Oc2cnc3[nH]cc(C(=O)NC(CC)C4(O)CCC4)c3n2)CC1` (racemic) [Example 213, Racemic-2-[(1-acryloylpiperidin-4-yl)oxy]-N-[1-(1-hydroxycyclobutyl)propyl]-5H-pyrrolo[2,3-b]pyrazine-7-carboxamide] were 0.343 µM, 1.72 µM and 0.00307 µM.
Taken in the same sequence, the figures for `C=CC(=O)N1CCC(Oc2cnc3[nH]cc(C(=O)NCC4(O)CCCC(F)(F)C4)c3n2)CC1` (racemic) [Example 223, Racemic-2-[(1-acryloylpiperidin-4-yl)oxy]-N-[(3,3-difluoro-1-hydroxycyclohexyl)methyl]-5H-pyrrolo[2,3-b]pyrazine-7-carboxamide] were 0.344 µM, 3.33 µM and 0.00413 µM.
Take `C=CC(=O)N1CCC(C)(Nc2cnc3[nH]cc(C(=O)NCC(C)CC(F)(F)F)c3n2)CC1` (racemic) [Example 270, Racemic-2-[(1-acryloyl-4-methylpiperidin-4-yl)amino]-N-(4,4,4-trifluoro-2-methylbutyl)-5H-pyrrolo[2,3-b]pyrazine-7-carboxamide]: the figures for the IC50 (at JAK3 enzyme [1]; in assay [2]; at JAK3 enzyme [3]) were 0.063 µM, 0.67 µM and 0.000526 µM, respectively.
For the molecule `C=CC(=O)N1CCC(Nc2cnc3[nH]cc(C(=O)NCCCC(F)(F)F)c3n2)CC1C` (racemic) [Example 282, Racemic-2-[(1-acryloyl-2-methylpiperidin-4-yl)amino]-N-(4,4,4-trifluorobulyl)-5H-pyrrolo[2,3-b]pyrazine-7-carboxamide], the IC50 is 0.359 µM against JAK3 enzyme [1], 3.09 µM in assay [2] and 0.00245 µM against JAK3 enzyme [3].
Take `C=CC(=O)N1CCC(Nc2cnc3[nH]cc(C(=O)NCC(C)CC(F)(F)F)c3n2)CC1C` (racemic) [Example 310, Racemic-2-[(1-acryloyl-2-methylpiperidin-4-yl)amino]-N-(4,4,4-trifluoro-2-methylbutyl)-5H-pyrrolo[2,3-b]pyrazine-7-carboxamide]: the IC50 against JAK3 enzyme [1] worked out at 0.17 µM; in assay [2], 1.2 µM; at JAK3 enzyme [3], 0.00208 µM.
Taken in the same sequence, the figures for `C=CC(=O)N1CCC(Nc2cnc3[nH]cc(C(=O)NC4CCC4)c3n2)CC1C` (racemic) [Example 320, Racemic-2-[(1-acryloyl-2-methylpiperidin-4-yl)amino]-N-cyclobutyl-5H-pyrrolo[2,3-b]pyrazine-7-carboxamide] were 0.182 µM, 1.25 µM and 0.00216 µM.
